Data reported in US5703056A, “Non-invasive imaging of gene transfer” (priority 1995, dated 1997).

What was measured:
HSV1-TK [1] = target: T1, HSV1-TK (Human alphaherpesvirus 1 strain 17, UniProt P0DTH5); experiment: Single 120 minute paired accumulation of FIAU and IUdR by RG2TK+ and RG2 cells; assay type: cell-based, herpes simplex virus; settings: Data from FIG. 6A
Experimental: The processing of cells and incubation medium was the same as that described above. A portion of the harvested cells was also processed for acid-insoluble (10% TCA) radioactivity. Decay corrected ^123 I-radioactivity was measured in a Packard AutoGamma 5550 Spectrometer. Samples were stored for 1 week to allow for ^123 I decay (12 half lives), and recounted afterwards in the Packard B1600 TriCarb beta spectrometer to determine ^3 H- and ^14 C-radioactivity.
All radioactivity measurements were expressed as a percent of administered dose per gram of tissue or per unit volume of fluid as described above.
(§1) Data analysis. […] These two related measures are useful to evaluate the intensity of the images (e.g., high "sensitivity") and the ability to differentiate between HSV1-TK and endogenous-TK in the images (e.g., high "selectivity"). The "selectivity" measure is not interpreted as a relative sensitivity (i.e., a value of 1 indicating equal sensitivity) of the substrate to HSV1-TK vs. endogenous-TK. […] They are intended for the direct comparison of substrates only.

[2] = cited from earlier work
[3] = Calculated permeability surface area product (PS) of the cerebral capillaries; design: unit not given here
From the text: Passage of the nucleosides across the blood brain barrier (BBB) is an important factor to consider in the design of radiolabelled 2'-fluoro-nucleoside analogues for imaging HSV1-TK expression in the brain. […] It is known that brain capillary permeability for many compounds is related to their octanol/water partition coefficient (P) and molecular weight. [Levin, V. N. J. Med. Chem., 23: 682-4, 1980] Several authors have described a relationship between the brain capillary permeability and log P or log P·Dm, where Dm is a measure of diffusibility. […] [Dischino, D. D., Welch, M. J., Kilbourn, M. N., and Raichle, M. E., J. Nucl. Med., 24: 1030-8, 1983] […] Fenstermacher, J. D. Drug transfer across the blood brain barrier. In: Topics in Pharmaceutical Sciences. Ed.: Breimer, D. D., and Speiser, P. Amsterdam: Elsevier, pp. 143-54, 1983; Fenstermacher, J. D., and Rapoport, S. I. In: Handbook of Physiology. The Cardiovascular System. Microcirculation. Bethesda, Md.: Am. Physiol. Soc., sect. 2, Vol. IV, pt. 2, chapt. 21, p. 969-1000, 1984; Fenstermacher, J. D. In: Implications of Blood-Brain Barrier and Its Manipulation. Basic Science Aspects. Ed. by Neuwelt, E., New York: Plenum, Vol. 1, Chapt. 6, pp. 132-55, 1988]

RG2TK+ and RG2 tumors = experiment: Tissue sampling of FIAU- and IUdR-derived radioactivity in i.c. and s.c. RG2TK+ and RG2 tumors; assay type: in vivo, rat; settings: 24 h, percent dose per gram
Experimental: Animal preparation and tumor inoculation Two male Fisher 344 rats weighing 250±20 g were anesthetized with a gas mixture consisting of 2% Isoflurane, 70% nitrous oxide and 30% oxygen. A 2% lidocaine gel was applied to the ears and the head was fixed with a stereotaxic device. After midline scalp incision, a burr hole was made through the skull 1 mm posterior and 3 mm lateral to the bregma. The tumor cell suspensions were aspirated into a 50 μl gas tight Hamilton syringe (Ga. 25) and attached to a stereotaxic device. The syringe needle was then inserted 6 mm deep into the caudate nucleus and the cell suspension (10^5 cells in 10 μl) was slowly injected over 2 minutes. RG2TK+ cells were injected into the left hemisphere, and RG2 cells were injected into the right hemisphere. Bone wax was applied to cover the skull defect and the scalp was closed with 4.0 silk suture. Subcutaneous inoculations (10^6 cells in 50 μl) were also performed (RG2TK+ cells into the left flank and RG2 cells into the right flank). After the procedure, the animals were marked and placed in standard cages with water and Rodent LabChow #5001 (Purina Mills, Inc.) ad libitum. Comparison of different "marker substrates" for identifying HSV1-TK expression in animals After 10 days of tumor growth, both animals received i.v. injections of [^123 I]-IUdR (400 uCi) and [^14 C]-FIAU (10 uCi). Radioactivity was allowed to clear from the body over 24 hours to reduce tissue background activity, predominantly due to radiolabelled iodide, the major metabolite of [^123 I]-IUdR. [Tjuvajev, J. G., Muraki, A., Ginos, J., Berk, J., Koutcher, J., Ballon, D., Beattie, B., Finn, R., and Biasberg, R., J. Nucl. Med., 34: 1152-62, 1993; Tjuvajev, J. G., Macapinlac, H. A., Daghighian, F., Scott, A. M., ginos, J. Z., Finn, R. D., Kothari, P., Desai, R., Zhang, Z., Beattie, B., Graham, M., Larson, S., and Blasberg, R. G., J. Nucl. Med., 35: 1407-17, 1994] The rats were killed at 24 hours under anesthesia; samples of tumor and adjacent tissue were disected and weighed, blood and plasma were obtained, and radioactivity was measured. Decay corrected ^123 I-radioactivity was assayed in a Packard AutoGamma 5550 Spectrometer; samples were stored in a refrigerator for 1 week to allow for ^123 I decay (>12 half lives) and ^14 C-radioactivity was measured in a Packard B1600 TriCarb beta spectrometer using external standard quench correction. Sample radioactivity was expressed as a percent of administered dose per gram of tissue of per unit volume of fluid.

HSV1-TK [4] = target: T1, HSV1-TK; experiment: Accumulation of radiolabelled marker substrates in RG2TK+ transduced and RG2 wild-type cells, normalized to TdR; assay type: cell-based, herpes simplex virus
Experimental: Source of radiolabelled "marker substrates". […] No carrier-added 5-[^123 I]-deoxyuridine (IUdR) was prepared by reacting 2-deoxyuridine (UdR) with carrier-free ^123 I-labelled sodium iodide in an iodogen coated reaction vial.
Comparison of "marker substrates" for identifying HSV1-tk gene expression in tissue culture. […] Each of these substrates were developed for or used as an anti-viral agent; they are phosphorylated by HSV1-TK and can be radiolabelled for noninvasive imaging.
Wild-type (nontransduced) RG2 cells were studied as a reference control. […] The cells were dislodged from the Petri dishes with a soft scraper, poured into 15 ml conical tubes, centrifuged and the medium aspirated. The tubes were cut to facilitate removing cells; they were blotted, placed in pre-weighed vials, weighed and prepared for counting. Samples were assayed for ^3 H- and ^14 C-radioactivity using a Packard B1600 TriCarb beta spectrometer using dual-channel and external standard splash and quench correction techniques. The medium was also counted before and following incubation. The data was expressed as a harvested cell-to-medium concentration ratio (dpm/g cells.div.dpm/ml medium).
as §1

T1 sequence (P0DTH5 whole entry): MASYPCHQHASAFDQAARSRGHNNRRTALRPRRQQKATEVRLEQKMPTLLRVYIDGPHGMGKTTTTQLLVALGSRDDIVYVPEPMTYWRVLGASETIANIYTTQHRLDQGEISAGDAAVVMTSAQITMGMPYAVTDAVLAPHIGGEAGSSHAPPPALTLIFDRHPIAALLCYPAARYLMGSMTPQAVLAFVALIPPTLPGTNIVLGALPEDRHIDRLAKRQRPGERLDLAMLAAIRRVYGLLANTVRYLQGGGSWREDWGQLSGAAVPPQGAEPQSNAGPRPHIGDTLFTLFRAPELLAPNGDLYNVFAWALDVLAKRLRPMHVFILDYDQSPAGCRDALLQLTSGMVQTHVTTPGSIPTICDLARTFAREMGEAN

SMILES: O=c1[nH]c(=O)n([C@@H]2O[C@H](CO)[C@@H](O)[C@@H]2F)cc1I [FIAU, 2'-fluoro-5-iodo-1-β-D-arabinofuranosyl-uracil]
- Sensitivity* Δ(substrate/TdR)/Δ(HSV1TK mRNA/S28 RNA IOD) (HSV1-TK [1]): 0.0105
- organ damage in clinical trial ([2]; human, in vivo): severe liver and pancreatic damage
- dose-limiting toxicity ([2]; pharmacologic doses): dose-limiting gastrointestinal, hematologic and neurotoxicity
- PS* ([3]; calculated from measured log P and MW: log(PS)=5.2+log(P·Dm)): 0.59
- PS+ ([3]; calculated from published log P and MW: log(PS)=5.2+log(P·Dm)): 0.59
- Sensitivity* (uptake in RG2TK+ tumor - uptake in RG2 tumor)/(HSV1TK mRNA/S28 RNA IOD in RG2TK+ cells) (RG2TK+ and RG2 tumors; RG2TK+/RG2 i.c. tumors): 0.0025
- Sensitivity* (uptake in RG2TK+ tumor - uptake in RG2 tumor)/(HSV1TK mRNA/S28 RNA IOD in RG2TK+ cells) (RG2TK+ and RG2 tumors; RG2TK+/RG2 s.c. tumors): 0.0150
- Sensitivity* Δ(substrate/TdR)/Δ(HSV1TK mRNA/S28 RNA IOD) (HSV1-TK [4]; Data from FIG. 5): 0.0090
- Sensitivity* Δ(substrate/TdR)/Δ(HSV1TK mRNA/S28 RNA IOD) (HSV1-TK [4]; Data from FIG. 7B (different RG2TK cell lines)): 0.0086
